# US20060147947A1, “AMPK pathway components” (priority 2002, published 2006)
# Where two headings read alike, the source gives them in different places.
# Key:
# AMPK = conditions: cited from earlier work
# amp-1(ok524) animals [1] = test system: amp-1(ok524) animals
# From the text: (§1) To determine if the AMP/ATP ratio changed with age, we measured the levels of AMP, ADP, and ATP directly. We lysed 30 adult worms of the appropriate age, grown at the indicated temperature, lysed them, and separated the extract by Reversed Phase HPLC, measuring the Absorbance 260 nm. We used a C. elegans strain that lacks sperm at 25 C [CF512: fem-1(−); fer-15(−)].
# (§2) Thirty animals of the appropriate age were hand-transferred to ice-cold lysis buffer (ATP Bioluminiscense Kit, Roche), frozen in liquid nitrogen, boiled for 15 minutes, passed trough a 0.2μ filter (Nanosep), and subjected to isocratic reversed phase chromatography using a TARGA C18 250×4.6 mm 5 μM column equilibrated in 100 mM KH2PO4, pH 6.0 at 1 mL per min. Detection at 260 nm was performed using a WATERS 486 tunable detector. Peak areas were measured using PEAK EXPLORER™ software. […] Unless noted, animals were one day old adults.
# (§3) Dauer assays, heat tolerance and behavioral assays were performed as described. Starvation was performed by transfer to bacteria-free, peptone-free plates. Treatment with […] sodium azide was performed by transfer to plates with the drug; fraction alive was determined visually, six hours after transfer to normal growth. Gut fluorescence was photographed on the focal plane of the lumen with a DM505 filter on a NIKON E800 microscope. Average intensity was determined with METAMORPH™ 6.1r1 software.
# N2 (wild type) animals = test system: N2 (wild type) animals
# From the text: as §1, §2, §3
# amp-1(ok524) animals [2] = conditions: 1 mM sodium azide for 18 hours; amp-1(ok524) versus wild type
# Protocol: Dauer assays, heat tolerance and behavioral assays were performed as described. Starvation was performed by transfer to bacteria-free, peptone-free plates. […] Gut fluorescence was photographed on the focal plane of the lumen with a DM505 filter on a NIKON E800 microscope. Average intensity was determined with METAMORPH™ 6.1r1 software.
# [3] = 1 mM Azide 4 hours, then no azide 1 hour
molecule,measurement,setting,value
CN(C)C(=N)N=C(N)N [Metformin],effect on AMPK activity,AMPK,stimulate AMPK activity
[N-]=[N+]=[N-] [sodium azide],AMP/ATP Average,amp-1(ok524) animals [1]; 1 mM Azide 1 hour,3.19
same,AMP/ATP Average,amp-1(ok524) animals [1]; 1 mM Azide 4 hours,4.34
same,AMP/ATP Average,amp-1(ok524) animals [1]; [3],1.24
same,AMP/ATP Average,"amp-1(ok524) animals [1]; 1 mM Azide 4 hours, then no azide 2 hour",1.29
same,AMP/ATP Average,N2 (wild type) animals; 1 mM Azide 1 hour,2.08
same,AMP/ATP Average,N2 (wild type) animals; 1 mM Azide 4 hours,2.53
same,AMP/ATP Average,N2 (wild type) animals; [3],1.08
same,sensitivity to killing,amp-1(ok524) animals [2],more sensitive than wild type animals to killing
Leptin: peptide hormone that increases AMPK activity when applied to cells,effect on AMPK activity,AMPK; applied to cells,increases AMPK activity
"adiponectin: globular and full-length adiponectin protein (protein, UniProt Q15848 19-244, looked up) Adiponectin: ETTTQGPGVLLPLPKGACTGWMAGIPGHPGHNGAPGRDGRDGTPGEKGEKGDPGLIGPKGDIGETGVPGAEGPRGFPGIQGRKGEPGEGAYVYRSAFSVGLETYVTIPNMPIRFTKIFYNQQNHYDGSTGKFHCNIPGLYYFAYHITVYMKDVKVSLFKKDKAMLFTYDQYQENNVDQASGSVLLHLEVGDQVWLQVYGEGERNGLYADNDNDSTFTGFLLYHDTN",effect on AMPK activity,AMPK; liver cells,stimulates AMPK activity
same,effect on AMPK activity,AMPK; skeletal muscle,stimulate AMPK activity
